The values below come from paper PMC11475664, “Alpha-glucosidase inhibitory compounds from Vietnamese lichen Usnea baileyi: in vitro and in silico aspects” (RSC Advances, 2024).

The subject of one data set is Hek293 cells. Nature of the data set: Cytotoxicity assay (MTT, 72 h) on Hek293. Type of data set: cell-based. As to conditions: Homo sapiens, read-out: Hek293 IC50. The procedure:
(§1) Table S2. Cytotoxicity of compounds 1-6, 11, 1a-1e, and 6a […]
(§2) The method used followed that reported by Nguyen et al. (2022). Briefly, HepG2 and Hek293 cells in a complete medium containing DMEM (HyClone, Cytiva, USA) and 10% fetal bovine serum (FBS) were seeded into a 96-well plate at 5 × 10^4 cells per well. The cells were then incubated at 37°C with 5% CO2. After culturing for 24 h, the old medium was replaced by diluted compounds (in DMSO), positive control Doxorubicin (DOX, Fesenius Kabi, Germany), and negative control dimethyl sulfoxide (DMSO, Sigma-Aldrich, Germany). After 72 h of treatment, MTT (3-(4,5-Dimethyl-2-thiazolyl)-2,5-diphenyl-2H-tetrazolium bromide) was added into each well of the test plate. The plate was incubated at 37°C with 5% CO2 for another 3 h. DMSO was used to dissolve the crystals from the interaction between MTT and viable cells. The absorbance of samples was read at 570 nm by the ELISA Reader (BioTek, USA). Cell death (% inhibition) was estimated by the following formula:
(§3) % Inhibition = 100 − [100 × (A Sample – A B1)/(ADMSO – A B2)]
(§4) Where, ASample: Absorbance of sample, ADMSO: Absorbance of negative control, AB1: Absorbance of blank of sample, AB2: Absorbance of blank of DMSO. The IC50 value and the inhibitory chart were respectively calculated and built using GraphPad Prism software (version 8.0.1, Insightful Science LLC, […]
(§5) Ref: Nguyen HH, Aree T, Nguyen HT, et al. Diorygmones A-B, two new guaiane-sesquiterpenes from the cultured lichen mycobiont of Diorygma sp. Natural Product Research. Published online February 1,

In a further data set the test system is alpha-glucosidase. Nature of the data set: Inhibitory type assay of 1e on alpha-glucosidase (Lineweaver–Burk plots, pNPG substrate). It counts as biochemical, yeast. The method, then:
Replacing the imine group in 1a and 1b for the aldehyde group in 1 enhances the activity. […] In contrast, the bromine atoms within a depsidone skeleton (1c, 1d, and 6a) decrease the activity. […] At concentrations of 0, 1.82, 3.64, 7.28, and 14.57 μM of 1e, the activity was evaluated. […] This type was identical to that of parmosidone F.[18]
The mechanisms of inhibition of alpha-glucosidase by 1e were determined by Lineweaver–Burk plots using methods similar to those reported in the literature.[18] Enzyme inhibition due to various concentrations of 1e was evaluated by monitoring the effects of different substrate concentrations. For Lineweaver–Burk double reciprocal plots 1/enzyme velocity (1/V) vs. 1/substrate concentration (1/[S]), the inhibition type was determined using various concentrations of pNPG (1 mM, 2 mM, and 4 mM) as a substrate in the presence of different concentrations of the test compounds (0, 1.82, 3.64, 7.28, and 14.57 μM for 1e). The experiments were carried out in 3 replicates. The mixtures were incubated at 37 °C and the optical density was measured at 405 nm every 1 minutes for 30 minutes with the ELx800 Absorbance Microplate Reader (BioTek Instruments, Inc., Vermont, USA). Optimal concentrations of the tested compounds were chosen based on the IC50 values. […]

The next data set concerns yeast alpha-glucosidase. In words: Alpha-glucosidase inhibition assay. As to conditions: for IC50: yeast alpha-glucosidase. Type of data set: biochemical. From the text: Evaluation of the inhibitory activity of compounds against yeast alpha-glucosidase followed a previous procedure.[30]
The test system of the next data set is HepG2 cells. In words: Cytotoxicity assay (MTT, 72 h) on HepG2. It counts as cell-based. The settings on record: Homo sapiens, read-out: HepG2 IC50. The method, then: as §1, §2, §3, §4, §5
Data set [1] in a line: Cytotoxicity assay (MTT, 72 h) on Hek293. It counts as cell-based. The settings on record: human. The procedure:
as §1, §2, §3, §4, §5

A short description of data set [2]: Cytotoxicity assay (MTT, 72 h) on HepG2. Type of data set: cell-based. The settings on record: human. The procedure:
as §1, §2, §3, §4, §5

Values after ≈ are worked out from the molar mass of the structure shown. Read-outs that look alike come from different tables or passages of the source. A value given as a limit tells only on which side of the number the result lay.

For `Cc1cc(O)c(C=O)c2c1C(=O)Oc1c(C)c(C(=O)O)c(O)c(Cc3c(O)cc(O)c(Cc4c(O)c(C(=O)O)c(C)c5c4Oc4c(C=O)c(O)cc(C)c4C(=O)O5)c3C)c1O2` [Compound 1e, 6,6′-((4,6-dihydroxy-2-methyl-1,3-phenylene)bis(methylene))bis(4-formyl-3,7-dihydroxy-1,9-dimethyl-11-oxo-11H-dibenzo[b,e][1,4]dioxepine-8-carboxylic acid)], the IC50 with Hek293 cells (normal cells Hek293, MTT, 72 h, Table S2) is over 100 mg/L; on yeast alpha-glucosidase, 10.4 ± 0.4 µM; in the data set with HepG2 cells (liver cancer cell line HepG2, MTT, 72 h, Table S2), over 100 mg/L. In addition, in the data set on alpha-glucosidase (Lineweaver–Burk plots, 0, 1.82, 3.64, 7.28, 14.57 μM of 1e), the inhibition type result is “mixed-mode inhibitor”. The Ki at alpha-glucosidase (secondary plot, Fig. 4B, read-out: Ki, inhibition constant of binding with the free enzyme) was 6.65 ± 0.48 µM. Further, in the data set with yeast alpha-glucosidase (compared with 1), the “alpha-glucosidase inhibition, fold stronger than 1” value was “seven-fold”.
Regarding `COC(=O)[C@]12Oc3ccc(-c4ccc5c(c4O)C(=O)[C@@H]4CC[C@@H](C)[C@H](O)[C@]4(C(=O)OC)O5)c(O)c3C(=O)C1=C(O)C[C@H](C)[C@H]2O` [Compound 11, eumitrin A1], the IC50 came to 37.6 ± 4.3 mg/L (≈ 60.2 µM) in the data set on Hek293 cells (HEK293, 72 h); 130 ± 2 µM against yeast alpha-glucosidase; 38.8 ± 0.5 mg/L (≈ 62.1 µM) in the data set on HepG2 cells (HepG2, 72 h). The IC50 at 72 h in data set [1] worked out at 60.3 µM; in data set [2] it was 62.1 µM.

As usually defined, the IC50 is the point on the concentration scale where inhibition reaches its midpoint. The Ki is a dissociation constant, usually derived from enzyme kinetics or from competition with a known ligand.
